In US11999727B2 (Tango Therapeutics, Inc., priority 2020, dated 2024):

Tests used:
[1] = system: HAP1 MTAP-deleted cell line; test: SDMA in-cell western assay, HAP1 MTAP-deleted; format: cell-based; conditions: for IC50: Homo sapiens, HAP1, SDMA in-cell western, HAP1 MTAP-deleted, read-out: HAP1 MTAP deleted IC50; for MTAP intact/deleted ratio: IC50 ratio HAP1 MTAP-intact / HAP1 MTAP-deleted, SDMA in-cell western
In short: (§1)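 MTAP-null vs endogenous-MTAP HAP1 isogenic cells; in-cell western SDMA readout; IC50 per line.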

PRMT5 [2] = target: T1, PRMT5 (Homo sapiens, UniProt O14744); test: PRMT5 biochemical IC50 assay with no cofactor; conditions: PRMT5, no cofactor; read-out: No Cofactor/rel IC50
T1 construct: purchased Viva (custom protein)
From the text: Table 1 indicates IC50 values (μM) against PRMT5 for exemplary compounds in the presence of SAM as cofactor, with no cofactor, and with MTA as cofactor, respectively (columns 4-6). […] Ki values can be calculated from the IC50 values as described in the Examples section. As detailed in the Examples section, for the assay performed in the presence of SAM, IC50=Ki×1.5 (Ki=IC50/1.5).

PRMT5 [3] = target: T1, PRMT5; test: PRMT5 biochemical IC50 assay with SAM as cofactor; conditions: PRMT5, SAM as cofactor; read-out: SAM IC50
[4] = system: HAP1 MTAP-deleted cell line; test: Viability assay, MTAP-deleted cell line; format: cell-based; conditions: Homo sapiens, HAP1, viability assay, MTAP-deleted cell line; read-out: HAP1 MTAP deleted viability
From the text: Table 1 additionally indicates IC50 values in a viability assay for the MTAP-deleted cell line (column 10), indicating the effect of treatment with compound on cell survival.

[5] = system: HAP1 MTAP-intact cell line; test: SDMA in-cell western assay, HAP1 MTAP-intact; format: cell-based; conditions: Homo sapiens, HAP1, SDMA in-cell western, HAP1 MTAP-intact; read-out: MTAP HAP1 intact IC50
In short: as §1

PRMT5 [6] = target: T1, PRMT5; test: PRMT5 biochemical IC50 assay with MTA as cofactor; conditions: PRMT5, MTA as cofactor; read-out: MTA IC50

T1 sequence (O14744 whole entry): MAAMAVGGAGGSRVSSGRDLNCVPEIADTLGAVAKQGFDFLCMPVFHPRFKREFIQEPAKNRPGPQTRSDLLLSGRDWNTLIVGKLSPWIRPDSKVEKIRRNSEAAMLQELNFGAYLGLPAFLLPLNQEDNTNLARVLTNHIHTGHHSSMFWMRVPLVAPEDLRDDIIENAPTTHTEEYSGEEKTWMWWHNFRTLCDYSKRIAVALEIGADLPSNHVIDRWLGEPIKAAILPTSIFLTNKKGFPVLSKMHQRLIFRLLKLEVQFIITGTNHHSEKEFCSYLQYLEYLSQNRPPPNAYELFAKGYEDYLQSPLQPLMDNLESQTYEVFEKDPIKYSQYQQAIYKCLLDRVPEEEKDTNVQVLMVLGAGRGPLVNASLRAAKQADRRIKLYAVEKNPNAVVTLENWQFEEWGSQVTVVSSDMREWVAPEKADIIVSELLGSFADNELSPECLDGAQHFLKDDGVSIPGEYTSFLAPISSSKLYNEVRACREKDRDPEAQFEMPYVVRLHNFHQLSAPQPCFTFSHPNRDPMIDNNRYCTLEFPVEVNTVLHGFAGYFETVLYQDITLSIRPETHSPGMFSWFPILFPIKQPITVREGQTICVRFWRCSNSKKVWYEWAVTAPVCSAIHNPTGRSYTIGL
T1 sequence (Q9BQA1 whole entry partner): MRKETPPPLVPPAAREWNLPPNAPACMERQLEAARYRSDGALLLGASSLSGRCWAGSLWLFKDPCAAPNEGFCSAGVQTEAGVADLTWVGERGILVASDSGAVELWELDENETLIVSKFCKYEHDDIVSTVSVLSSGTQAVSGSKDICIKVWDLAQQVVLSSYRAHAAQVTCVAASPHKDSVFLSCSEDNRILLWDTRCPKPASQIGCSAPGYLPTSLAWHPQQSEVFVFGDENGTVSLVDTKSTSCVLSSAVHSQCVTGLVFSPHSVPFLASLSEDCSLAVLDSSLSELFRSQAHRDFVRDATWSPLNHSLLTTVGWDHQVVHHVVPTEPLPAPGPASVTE

| IC50 [1] [nM] | IC50 (PRMT5 [2]) [nM] | IC50 (PRMT5 [3]) [nM] | IC50 [5] [nM] | IC50 (PRMT5 [6]) [nM] | Compound | MTAP intact/deleted ratio [1] | IC50 [4] [µM] |
| --- | --- | --- | --- | --- | --- | --- | --- |
| < 100 | 50 to 500 | 50 to 500 | > 1000 | 50 to 500 | C[C@@H]1CC[C@@H](c2ccc(OC3CCOC3)cc2)N(C(=O)C(=O)Nc2cncc(C(N)=O)c2)C1 (mixture of isomers) [Compound 264, rac-5-{2-[(2R,5S)-5-Methyl-2-[4-(oxolan-3-yloxy)phenyl]piperidin-1-yl]-2-oxoacetamido}pyridine-3-carboxamide] | A (an IC50 ratio greater than or equal to 10 fold) | 1 to 10 |
| 100 to 1000 | 50 to 500 | 50 to 500 | > 1000 | < 50 | C[C@@H]1CC[C@@H](c2cccc(C(F)(F)F)c2)N(C(=O)C(=O)Nc2cncc(C(N)=O)c2)C1 (racemic) [Compound 265, rac-5-{2-[(2R,5S)-5-Methyl-2-[3-(trifluoromethyl)phenyl]piperidin-1-yl]-2-oxoacetamido}pyridine-3-carboxamide] | A (an IC50 ratio greater than or equal to 10 fold) | 1 to 10 |
| 100 to 1000 | > 500 | 50 to 500 | > 1000 | 50 to 500 | NC(=O)c1cncc(NC(=O)C(=O)N2C[C@@H](CO)CC[C@@H]2c2ccccc2)c1 (racemic) [Compound 266, 5-(2-(5-(hydroxymethyl)-2-phenylpiperidin-1-yl)-2-oxoacetamido)nicotinamide] | A (an IC50 ratio greater than or equal to 10 fold) | > 10 |
| 100 to 1000 | 50 to 500 | 50 to 500 | > 1000 | < 50 | C[C@@H]1CC[C@@H](c2cccc(C(F)F)c2)N(C(=O)C(=O)Nc2cncc(C(N)=O)c2)C1 (racemic) [Compound 268, rac-5-{2-[(2R,5S)-2-[3-(Difluoromethyl)phenyl]-5-methylpiperidin-1-yl]-2-oxoacetamido}pyridine-3-carboxamide] | A (an IC50 ratio greater than or equal to 10 fold) | 1 to 10 |
| < 100 | 50 to 500 | 50 to 500 | > 1000 | < 50 | C[C@@H]1CC[C@@H](c2ccc3c(c2)OCO3)N(C(=O)C(=O)Nc2cncc(C(N)=O)c2)C1 (racemic) [Compound 270, rac-5-{2-[(2R,5S)-2-(1,3-Dioxaindan-5-yl)-5-methylpiperidin-1-yl]-2-oxoacetamido}pyridine-3-carboxamide] | A (an IC50 ratio greater than or equal to 10 fold) | 1 to 10 |
| 100 to 1000 | 50 to 500 | 50 to 500 | > 1000 | < 50 | C[C@@H]1CC[C@@H](c2ccc(OC(F)F)cc2)N(C(=O)C(=O)Nc2cncc(C(N)=O)c2)C1 (racemic) [Compound 271, rac-5-{2-[(2R,5S)-2-[4-(Difluoromethoxy)phenyl]-5-methylpiperidin-1-yl]-2-oxoacetamido}pyridine-3-carboxamide] | A (an IC50 ratio greater than or equal to 10 fold) | 1 to 10 |
| > 1000 | 50 to 500 | 50 to 500 | > 1000 | 50 to 500 | C[C@@H]1CC[C@@H](c2ccc3nncn3c2)N(C(=O)C(=O)Nc2cncc(C(N)=O)c2)C1 (racemic) [Compound 272, rac-5-{2-[(2R,5S)-5-Methyl-2-{[1,2,4]triazolo[4,3-a]pyridin-6-yl}piperidin-1-yl]-2-oxoacetamido}pyridine-3-carboxamide] | C (an IC50 ratio of less than 3 fold) | > 10 |
| 100 to 1000 | 50 to 500 | 50 to 500 | > 1000 | < 50 | C[C@@H]1CC[C@@H](c2ccc(CC3CC3)cc2)N(C(=O)C(=O)Nc2cncc(C(N)=O)c2)C1 (racemic) [Compound 273, rac-5-{2-[(2R,5S)-2-[4-(Cyclopropylmethyl)phenyl]-5-methylpiperidin-1-yl]-2-oxoacetamido}pyridine-3-carboxamide] | A (an IC50 ratio greater than or equal to 10 fold) | 1 to 10 |
| 100 to 1000 | 50 to 500 | 50 to 500 | > 1000 | < 50 | C[C@@H]1CC[C@@H](c2ccc(F)nc2)N(C(=O)C(=O)Nc2cncc(C(N)=O)c2)C1 (racemic) [Compound 276, rac-5-{2-[(2R,5S)-2-(6-Fluoropyridin-3-yl)-5-methylpiperidin-1-yl]-2-oxoacetamido}pyridine-3-carboxamide] | A (an IC50 ratio greater than or equal to 10 fold) | > 10 |
| 100 to 1000 | 50 to 500 | 50 to 500 | > 1000 | < 50 | C[C@@H]1CC[C@@H](c2ccc3c(c2)CCC3)N(C(=O)C(=O)Nc2cncc(C(N)=O)c2)C1 (racemic) [Compound 277, rac-5-{2-[(2R,5S)-2-(2,3-Dihydro-1H-inden-5-yl)-5-methylpiperidin-1-yl]-2-oxoacetamido}pyridine-3-carboxamide] | A (an IC50 ratio greater than or equal to 10 fold) | 1 to 10 |
| 100 to 1000 | 50 to 500 | 50 to 500 | > 1000 | < 50 | C[C@@H]1CC[C@@H](c2cccc(OC(F)(F)F)c2)N(C(=O)C(=O)Nc2cncc(C(N)=O)c2)C1 (racemic) [Compound 279, rac-5-{2-[(2R,5S)-5-Methyl-2-[3-(trifluoromethoxy)phenyl]piperidin-1-yl]-2-oxoacetamido}pyridine-3-carboxamide] | A (an IC50 ratio greater than or equal to 10 fold) | 1 to 10 |
| 100 to 1000 | 50 to 500 | 50 to 500 | > 1000 | < 50 | C[C@@H]1CC[C@@H](c2ccc(Cl)c(N)c2)N(C(=O)C(=O)Nc2cncc(C(N)=O)c2)C1 (racemic) [Compound 280, rac-5-{2-[(2R,5S)-2-(3-Amino-4-chlorophenyl)-5-methylpiperidin-1-yl]-2-oxoacetamido}pyridine-3-carboxamide] | A (an IC50 ratio greater than or equal to 10 fold) | 1 to 10 |
| 100 to 1000 | > 500 | > 500 | > 1000 | 50 to 500 | C[C@@H]1CC[C@@H](c2ccc3c(c2)CCO3)N(C(=O)C(=O)Nc2cncc(C(N)=O)c2)C1 (racemic) [Compound 282, rac-5-{2-[(2R,5S)-2-(2,3-Dihydro-1-benzofuran-5-yl)-5-methylpiperidin-1-yl]-2-oxoacetamido}pyridine-3-carboxamide] | A (an IC50 ratio greater than or equal to 10 fold) | > 10 |
| 100 to 1000 | 50 to 500 | 50 to 500 | > 1000 | 50 to 500 | Cc1cc(NC(=O)C(=O)N2C[C@H](C(N)=O)CC[C@H]2c2ccccc2)cnc1N (racemic) [Compound 315] | A (an IC50 ratio greater than or equal to 10 fold) | > 10 |
| > 1000 | > 500 | > 500 | > 1000 | 50 to 500 | NC(=O)c1cncc(NC(=O)C(=O)N2C[C@@H](CC(F)(F)F)CC[C@H]2c2ccccc2)c1 (racemic) [Compound 318, 5-[[2-Oxo-2-[(2R,5S)-2-phenyl-5-(2,2,2-trifluoroethyl)-1-piperidyl]acetyl]amino]pyridine-3-carboxamide] | C (an IC50 ratio of less than 3 fold) | > 10 |
| < 100 | 50 to 500 | 50 to 500 | > 1000 | 50 to 500 | C[C@@H]1CC[C@@H](c2ccc(Cl)c(F)c2)N(C(=O)C(=O)Nc2cncc(C(N)=O)c2)C1 (racemic) [Compound 327, rac-5-{2-[(2R,5S)-2-(4-Chloro-3-fluorophenyl)-5-methylpiperidin-1-yl]-2-oxoacetamido}pyridine-3-carboxamide] | A (an IC50 ratio greater than or equal to 10 fold) | 1 to 10 |
| 100 to 1000 | 50 to 500 | > 500 | > 1000 | 50 to 500 | C[C@@H]1CC[C@@H](c2ccc(Cl)c(C(F)(F)F)c2)N(C(=O)C(=O)Nc2cncc(C(N)=O)c2)C1 (racemic) [Compound 337, rac-5-{2-[(2R,5S)-2-[4-Chloro-3-(trifluoromethyl)phenyl]-5-methylpiperidin-1-yl]-2-oxoacetamido}pyridine-3-carboxamide] | A (an IC50 ratio greater than or equal to 10 fold) | 1 to 10 |
